Experimental data: PMC10146604, “The Balance between Hydrophobicity/Aromaticity and Positively Charged Residues May Influence the Cell Penetration Ability” (Pharmaceutics, 2023)
Peptide text beside a SMILES is read from it. * marks the point of attachment. 5FAM = O=C1OC2(c3ccc(O)cc3Oc3cc(O)ccc32)c2ccc(C(=O)*)cc21; Dabcyl = CN(C)c1ccc(N=Nc2ccc(C(=O)*)cc2)cc1

Test system: EBC-1 human lung squamous carcinoma cells
Experiment: Cellular uptake by flow cytometry
Assay type: cell-based
Settings: 90 min, 37 °C, trypsinization; for cellular uptake relative to the control octaarginine (Cf-Arg8) / cellular uptake (in words): 5 µM peptide, serum-free medium; for cellular uptake relative to the control octaarginine (Cf-Arg8): flow cytometry fluorescence intensity normalized to Cf-Arg8; for cellular uptake (in words): compared with Cf-Arg8
Description: For the examination of the internalization of the peptides, 10^5 cultured EBC-1 cells per well were plated on 24-well plates. The cells were incubated for 24 h at 37 °C then they were treated with peptides at different concentrations for 90 min in a serum-free medium. In the negative control the cells were treated with a serum-free medium. After the incubation, the peptide solutions were removed and 100 µL trypsin (0.25%) was added for 5–10 min to remove membrane bound peptides and detach the adherent cells from the plates. The activity of trypsin was terminated by the addition of 900 µL HPMI buffer (glucose, NaHCO3, NaCl, HEPES, KCl, MgCl2, CaCl2, Na2HPO4∙2H2O) containing 10% fetal bovine serum, and the cells were transferred from the plates to FACS-tubes for measurement. The cells were centrifuged at 216× g at 4 °C for 5 min and the supernatant was removed. The cells were resuspended in 250 µL HPMI, and the fluorescence intensity of the cells was quantified using flow cytometry (BD LSR II, BD Bioscience, San Jose, CA, USA). The data were analyzed with FACSDiva 5.0 software (BD Bioscience, San Jose, CA, USA).
The cellular uptake of the peptides was determined using flow cytometry on EBC-1 human lung squamous carcinoma cells. The peptides were added to the cells at a concentration of 5 µM for 90 min at 37 °C. Selected constructs were used to study the concentration dependence at 0.125, 1.25 and 2.5 µM with 90 min treatment times. When evaluating the measurements data, the fluorescence of cells treated with peptides was corrected with the autofluorescence of cells without peptide treatment. The toxicity of the peptide conjugates was determined by comparing the live and dead cells ratio during the flow cytometry analysis.

Structure (SMILES) | cellular uptake relative to the control octaarginine (Cf-Arg8) (EBC-1 cells) | cellular uptake (in words) (EBC-1 cells, flow cytometry) | other results
CN(C)c1ccc(N=Nc2ccc(C(=O)NCc3ccc(C(=O)N[C@@H](CCCNC(=N)N)C(=O)N[C@@H](CCCNC(=N)N)C(=O)N[C@@H](CCCNC(=N)N)C(=O)N[C@@H](CCCNC(=N)N)C(=O)N[C@@H](CCCNC(=N)N)C(=O)N[C@@H](CCCNC(=N)N)C(=O)N[C@@H](CCCNC(=N)N)C(=O)N[C@@H](CCCNC(=N)N)C(=O)N[C@@H](CCCCNC(=O)c4ccc5c(c4)C(=O)OC54c5ccc(O)cc5Oc5cc(O)ccc54)C(N)=O)cc3)cc2)cc1 [Dabcyl-AMBA-(Arg)8-Lys(Cf)] | ~ 8 times |  | cellular uptake relative to Cf-Arg8 (EBC-1 cells, 1.25 µM peptide, flow cytometry): ~ 6 times; cellular uptake relative to octaarginine (EBC-1 cells, 2.5 µM peptide, flow cytometry): 30 times
CN(C)c1ccc(N=Nc2ccc(C(=O)N[C@@H](CCCNC(=N)N)C(=O)N[C@@H](CCCNC(=N)N)C(=O)N[C@@H](CCCNC(=N)N)C(=O)N[C@@H](CCCNC(=N)N)C(=O)N[C@@H](CCCCNC(=O)c3ccc4c(c3)C(=O)OC43c4ccc(O)cc4Oc4cc(O)ccc43)C(N)=O)cc2)cc1 [Dabcyl-(Arg)4-Lys(Cf)] (Dabcyl-RRRRK(5FAM)-NH2) |  | lower cellular uptake than octaarginine | 
CN(C)c1ccc(N=Nc2ccc(C(=O)N[C@@H](CCCNC(=N)N)C(=O)N[C@@H](CCCNC(=N)N)C(=O)N[C@@H](CCCNC(=N)N)C(=O)N[C@@H](CCCNC(=N)N)C(=O)N[C@@H](CCCNC(=N)N)C(=O)N[C@@H](CCCNC(=N)N)C(=O)N[C@@H](CCCNC(=N)N)C(=O)N[C@@H](CCCCNC(=O)c3ccc4c(c3)C(=O)OC43c4ccc(O)cc4Oc4cc(O)ccc43)C(N)=O)cc2)cc1 [Dabcyl-(Arg)7-Lys(Cf)] | 6 times |  | 
CN(C)c1ccc(N=Nc2ccc(C(=O)NCCCC[C@H](NC(=O)[C@H](CCCNC(=N)N)NC(=O)[C@H](CCCNC(=N)N)NC(=O)[C@H](CCCNC(=N)N)NC(=O)[C@H](CCCNC(=N)N)NC(=O)[C@H](CCCNC(=N)N)NC(=O)[C@H](CCCNC(=N)N)NC(=O)c3ccc4c(c3)C(=O)OC43c4ccc(O)cc4Oc4cc(O)ccc43)C(N)=O)cc2)cc1 [Cf-(Arg)6-Lys(Dabcyl)] |  | surprisingly poor cellular uptake | cellular uptake compared with octaarginine at low concentrations (in words) (EBC-1 cells, 0.125, 1.25 and 2.5 µM peptide, flow cytometry): significantly decreased uptake
CN(C)c1ccc(N=Nc2ccc(C(=O)N[C@@H](CCCNC(=N)N)C(=O)N[C@@H](CCCNC(=N)N)C(=O)N[C@@H](CCCNC(=N)N)C(=O)N[C@@H](CCCNC(=N)N)C(=O)N[C@@H](CCCNC(=N)N)C(=O)N[C@@H](CCCNC(=N)N)C(=O)N[C@@H](CCCCNC(=O)c3ccc4c(c3)C(=O)OC43c4ccc(O)cc4Oc4cc(O)ccc43)C(N)=O)cc2)cc1 [Dabcyl-(Arg)6-Lys(Cf)] | 6.5 times |  | 
